From patent US20180338980A1, “AROMATIC SULFONAMIDE DERIVATIVES” (BAYER PHARMA AKTIENGESELLSCHAFT, priority 2015, published 2018)

Biological target: T1, P2X4 (Homo sapiens, UniProt Q99571)
T1 sequence (Q99571 1-388): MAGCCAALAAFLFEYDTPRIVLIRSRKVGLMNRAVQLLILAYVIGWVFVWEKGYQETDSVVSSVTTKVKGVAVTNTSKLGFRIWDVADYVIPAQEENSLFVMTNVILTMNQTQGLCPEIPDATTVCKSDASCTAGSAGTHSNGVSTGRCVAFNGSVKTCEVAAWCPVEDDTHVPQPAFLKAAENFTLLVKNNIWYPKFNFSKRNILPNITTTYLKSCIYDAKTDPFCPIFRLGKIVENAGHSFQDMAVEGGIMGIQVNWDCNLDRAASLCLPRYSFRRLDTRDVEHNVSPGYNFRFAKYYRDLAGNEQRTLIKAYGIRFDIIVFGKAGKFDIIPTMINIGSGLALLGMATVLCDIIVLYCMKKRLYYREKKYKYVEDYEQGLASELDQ
Experiment: Assay B: human P2X4 receptor cell line, mitochondrial photina luminescence (agonist Bz-ATP at EC50)
Assay type: cell-based
Parameters: host or cells: HEK 293 (recombinant, constitutively expressing; with mitochondrial photina in Assay B)
Conditions: HEK human P2X4 cell line, photina luminescence, agonist Bz-ATP at EC50, average; for Emax: read-out: human P2X4 Assay B avg Efficacy
Method: The identification of agonists and antagonists of the P2X4 receptor from humans and […] also the quantification of the activity of the compounds of the invention was performed by use of recombinant cell lines. […] The test cell lines constitutively express the mouse or human P2X4 receptors. Stimulation of the receptors with an agonist leads to a conformational change of P2X4 and influx of extracellular calcium ions through the ion channel. The cytoplasmatic calcium transient is detected via the calcium sensitive dye Fluo8 for the mouse P2×4 cell line or in case of the human P2×4 cell line a stably expressed calcium-sensitive photoprotein, mitochondrial photina, which, after reconstitution with the cofactor coelenterazine, emits light in dependence of calcium binding [Bovolenta S, Foti M, Lohmer S, Corazza S., J Biomol Screen. […] The strength of Fluo8 fluorescence signal or photina luminescence signal corresponds to the level of receptor activation. An inhibitor would decrease the signal depending on its potency and concentration.
The resulting light signal is measured immediately in the luminometer.

Row | SMILES | IC50 | Emax | human P2X4 Assay B avg Efficacy
1 | NS(=O)(=O)c1cc(NC(=O)Cc2ccccc2)ccc1Oc1cccc(C(F)(F)F)c1 [Example 253, 2-Phenyl-N-{3-sulfamoyl-4-[3-(trifluoromethyl)phenoxy]phenyl}acetamide] | 236 nM | 71% | 
2 | NS(=O)(=O)c1cc(NC(=O)Cc2ccccc2Cl)ccc1Oc1cccc(C(=O)N2CCCCC2)c1 [Example 067, 2-(2-chlorophenyl)-N-{4-[3-(piperidin-1-ylcarbonyl)phenoxy]-3-sulfamoylphenyl}acetamide] | 241 nM | 72% | 
3 | Cc1cc(Cl)c(CC(=O)Nc2ccc(Oc3cccc(Cl)c3)c(S(N)(=O)=O)c2)c(Cl)c1 [Example 126, N-[4-(3-Chlorophenoxy)-3-sulfamoylphenyl]-2-(2,6-dichloro-4-methylphenyl)acetamide] | 467 nM | 81% | 
4 | CC(Oc1ccc(NC(=O)Cc2ccccc2Cl)cc1S(N)(=O)=O)c1ccccc1 (single isomer, unassigned) [Example 148B, 2-(2-Chlorophenyl)-N-[4-(1-phenylethoxy)-3-sulfamoylphenyl]acetamide] | 519 nM |  | 64%
5 | C[C@@H](C(=O)Nc1ccc(Oc2cccc(Cl)c2)c(S(N)(=O)=O)c1)c1ccccc1 [Example 195, (2R)—N-[4-(3-Chlorophenoxy)-3-sulfamoylphenyl]-2-phenylpropanamide] |  | 64% | 
6 | NS(=O)(=O)c1cc(NC(=O)Cc2ccccc2)ccc1Oc1ccc(F)cc1F [Example 247, N-[4-(2,4-Difluorophenoxy)-3-sulfamoylphenyl]-2-phenylacetamide] | 1110 nM | 59% | 
7 | NS(=O)(=O)c1cc(NC(=O)Cc2ccccc2Cl)ccc1Oc1ccc(N2CCOCC2)cc1 [Example 044, 2-(2-Chlorophenyl)-N-{4-[4-(morpholin-4-yl)phenoxy]-3-sulfamoylphenyl}acetamide] | 2630 nM | 69% | 
8 | NS(=O)(=O)c1cc(NC(=O)Cc2ccccc2)ccc1Oc1ccc(OC(F)(F)F)cc1 [Example 252, 2-Phenyl-N-{3-sulfamoyl-4-[4-(trifluoromethoxy)phenoxy]phenyl}acetamide] | 6460 nM | 93% | 
9 | N#Cc1cc(C#N)cc(Oc2ccc(NC(=O)Cc3ccccc3Cl)cc2S(N)(=O)=O)c1 [Example 033, 2-(2-Chlorophenyl)-N-[4-(3,5-dicyanophenoxy)-3-sulfamoylphenyl]acetamide] | 6750 nM | 75% | 
10 | Cn1ccc(Oc2ccc(NC(=O)Cc3ccccc3Cl)cc2S(N)(=O)=O)n1 [Example 236, 2-(2-Chlorophenyl)-N-{4-[(1-methyl-1H-pyrazol-3-yl)oxy]-3-sulfamoylphenyl}acetamide] | 232 nM | 77% | 
11 | COCCN(C)C(=O)c1ccccc1CC(=O)Nc1ccc(Oc2cccc(Cl)c2)c(S(N)(=O)=O)c1 [Example 197, 2-(2-{[4-(3-Chlorophenoxy)-3-sulfamoylphenyl]amino}-2-oxoethyl)-N-(2-methoxyethyl)-N-methylbenzamide] | 4120 nM | 68% | 
12 | NS(=O)(=O)c1cc(NC(=O)Cc2ccc(Cl)cc2)ccc1Oc1ccc(Cl)cc1 [Example 228, N-[4-(4-Chlorophenoxy)-3-sulfamoylphenyl]-2-(4-chlorophenyl)acetamide] | 1590 nM | 58% | 
13 | CC(C)c1ncc(Oc2ccc(NC(=O)Cc3ccccc3Cl)cc2S(N)(=O)=O)cn1 [Example 057, 2-(2-Chlorophenyl)-N-{4-[(2-isopropylpyrimidin-5-yl)oxy]-3-sulfamoylphenyl}acetamide] | 1590 nM | 65% | 
14 | COc1ccc(C#N)cc1Oc1ccc(NC(=O)Cc2ccccc2Cl)cc1S(N)(=O)=O [Example 034, 2-(2-Chlorophenyl)-N-[4-(5-cyano-2-methoxyphenoxy)-3-sulfamoylphenyl]acetamide] | 172 nM | 57% | 
15 | NS(=O)(=O)c1cc(NC(=O)Cc2ccccc2OC(F)(F)F)ccc1Oc1cccc(Cl)c1 [Example 105, N-[4-(3-Chlorophenoxy)-3-sulfamoylphenyl]-2-[2-(trifluoromethoxy)phenyl]acetamide] | 203 nM | 75% | 
16 | NS(=O)(=O)c1cc(NC(=O)Cc2ccccc2Cl)ccc1Oc1ncccc1Cl [Example 038, 2-(2-chlorophenyl)-N-{4-[(3-chloropyridin-2-yl)oxy]-3-sulfamoylphenyl}acetamide] | 777 nM | 74% | 
17 | NS(=O)(=O)c1cc(NC(=O)Cc2ccncc2Cl)ccc1Oc1cccc(Cl)c1 [Example 119, N-[4-(3-Chlorophenoxy)-3-sulfamoylphenyl]-2-(3-chloropyridin-4-yl)acetamide] | 164 nM | 64% | 

Row | SMILES | IC50 | Emax | human P2X4 Assay B avg Efficacy
18 | NS(=O)(=O)c1cc(NC(=O)Cc2ccncc2)ccc1Oc1cccc(Cl)c1 [Example 188, N-[4-(3-Chlorophenoxy)-3-sulfamoylphenyl]-2-(pyridin-4-yl)acetamide] | 2560 nM | 71% | 
19 | NS(=O)(=O)c1cc(NC(=O)Cc2cc(F)c(F)cc2Cl)ccc1Oc1cccc(Cl)c1 [Example 123, 2-(2-Chloro-4,5-difluorophenyl)-N-[4-(3-chlorophenoxy)-3-sulfamoylphenyl]acetamide] | 369 nM | 55% | 
20 | NS(=O)(=O)c1cc(NC(=O)Cc2cccnc2Cl)ccc1Oc1cccc(Cl)c1 [Example 093, N-[4-(3-Chlorophenoxy)-3-sulfamoylphenyl]-2-(2-chloropyridin-3-yl)acetamide] | 216 nM | 68% | 
21 | NS(=O)(=O)c1cc(NC(=O)Cc2ccccc2)ccc1OC1CCCCC1 [Example 199, N-[4-(Cyclohexyloxy)-3-sulfamoylphenyl]-2-phenylacetamide] | 1960 nM | 70% | 
22 | N#Cc1ccc(Oc2ccc(NC(=O)Cc3ccccc3Cl)cc2S(N)(=O)=O)cc1C#N [Example 025, 2-(2-Chlorophenyl)-N-[4-(3,4-dicyanophenoxy)-3-sulfamoylphenyl]acetamide] | > 16000 nM | 50% | 
23 | NS(=O)(=O)c1cc(NC(=O)Cc2ccccc2Cl)ccc1Oc1cccc(Cl)n1 [Example 040, 2-(2-Chlorophenyl)-N-{4-[(6-chloropyridin-2-yl)oxy]-3-sulfamoylphenyl}acetamide] | 238 nM | 64% | 
24 | C[C@H](C(=O)Nc1ccc(Oc2cccc(Cl)c2)c(S(N)(=O)=O)c1)c1ccccc1 [Example 194, (2S)—N-[4-(3-chlorophenoxy)-3-sulfamoylphenyl]-2-phenylpropanamide] |  | 65% | 
25 | NS(=O)(=O)c1cc(NC(=O)Cc2ccccc2)ccc1Oc1ccccc1Cl [Example 076, N-[4-(2-Chlorophenoxy)-3-sulfamoylphenyl]-2-phenylacetamide] |  | 74% | 
26 | NS(=O)(=O)c1cc(NC(=O)Cc2ccccc2Cl)ccc1OC1COC1 [Example 216, 2-(2-Chlorophenyl)-N-[4-(oxetan-3-yloxy)-3-sulfamoylphenyl]acetamide] | 3350 nM | 45% | 
27 | NS(=O)(=O)c1cc(NC(=O)Cc2ccccc2Cl)ccc1OC1CCCC1 [Example 218, 2-(2-Chlorophenyl)-N-[4-(cyclopentyloxy)-3-sulfamoylphenyl]acetamide] | 248 nM | 80% | 
28 | Cc1cc(C)cc(Oc2ccc(NC(=O)Cc3ccccc3)cc2S(N)(=O)=O)c1 [Example 246, N-[4-(3,5-Dimethylphenoxy)-3-sulfamoylphenyl]-2-phenylacetamide] | 949 nM | 94% | 
29 | NS(=O)(=O)c1cc(NC(=O)Cc2cccnc2)ccc1Oc1cccc(Cl)c1 [Example 181, N-[4-(3-Chlorophenoxy)-3-sulfamoylphenyl]-2-(pyridin-3-yl)acetamide] | 2240 nM | 63% | 
30 | NS(=O)(=O)c1cc(NC(=O)Cc2ccccc2Cl)ccc1OC1CC[S+]([O-])C1 (stereo not drawn) [Example 241, 2-(2-Chlorophenyl)-N-{4-[(1-oxidotetrahydrothiophen-3-yl)oxy]-3-sulfamoylphenyl}acetamide] | > 16000 nM | 34% | 
31 | NS(=O)(=O)c1cc(NC(=O)Cc2cccc(OCCO)c2)ccc1Oc1cccc(Cl)c1 [Example 212, N-[4-(3-Chlorophenoxy)-3-sulfamoylphenyl]-2-[3-(2-hydroxyethoxy)phenyl]acetamide] | 406 nM | 85% | 
32 | N#Cc1cc(Cl)c(CC(=O)Nc2ccc(Oc3ccc(Cl)cc3)c(S(N)(=O)=O)c2)cc1Cl [Example 243, N-[4-(4-Chlorophenoxy)-3-sulfamoylphenyl]-2-(2,5-dichloro-4-cyanophenyl)acetamide] | 2720 nM | 70% | 
33 | CN1CCC(Oc2ccc(NC(=O)Cc3ccccc3)cc2S(N)(=O)=O)C1 (stereo not drawn) [Example 221, N-{4-[(1-Methylpyrrolidin-3-yl)oxy]-3-sulfamoylphenyl}-2-phenylacetamide] | > 50000 nM | 30% | 
